Data taken from US6156744A, “DT-diaphorase directed anti-tumor agents” (Cancer Research Campaign Tech (London), priority 1999, dated 2000).
Where two headings read alike, the source gives them in different places.

How the values were obtained:
DTD = conditions: cited from earlier work; for Substrate quality for DTD / pH dependence of metabolism by DTD: literature
DTD-rich cell lines = conditions: literature; cited from earlier work
DNA [1] = conditions: literature; cited from earlier work
BE and HT-29 cells = assay: MTT continuous challenge cytotoxicity, ratio BE/HT-29; type: cell-based, human; conditions: ratio of cytotoxicities, five days, 7200 min
Experimental: (§1) The cell lines used in this work were HT29, H460, H596, BE. These were obtained from the ATCC or from the European Collection for Animal Cell Cultures, ECACC. HT29 is a human colon cancer cell line and H460 is a human large cell lung carcinoma cell line. These two cell lines were used as they express relatively high levels of DTD. […] Continuous challenge cytotoxicity studies were carried out on these cells (600 per well) in 96 well plates using the MTT method. After five days, the absorbances were read on a multiscan plate reader at 540 and 640nm. Plots were then drawn for inhibition of cell growth as a function concentration. Each compound was tested in triplicate at each concentration on at least two occasions.

H596 and H460 cells = assay: MTT continuous challenge cytotoxicity, ratio H596/H460; type: cell-based, human; conditions: ratio of cytotoxicities, five days, 7200 min
Experimental: as §1

spheroid = conditions: literature; cited from earlier work
[2] = Bibby et al. 1993; cited from earlier work
[3] = cited from earlier work
[4] = system: 69 human tumor cell lines; conditions: p<0.016; cited from earlier work
[5] = system: CHO cell lines stably transfected with human DTD; conditions: Gustafson et al. 1996; cited from earlier work
DNA [6] = conditions: Lee et al. 1992; cited from earlier work
[7] = Beall et al. 1994, 1995; cited from earlier work
H460 and H596 cells = conditions: Ross et al. 1993; cited from earlier work
[8] = system: NSCLC and breast cancer cell lines; conditions: Beall et al. 1995; cited from earlier work
NSCLC xenografts = conditions: cited from earlier work
[9] = system: cells under hypoxic conditions; conditions: hypoxic vs aerobic; cited from earlier work
[10] = biological target: human recombinant DT-diaphorase (Homo sapiens, UniProt P15559); assay: NADH removal and quinone removal by recombinant human DT-diaphorase, HPLC; type: biochemical; conditions: for NADH Removal / Quinone Removal: 0.05 mM quinone, 10-100 ng/ml rhDT-diaphorase, 0.2 mM NADH, 25 mM Tris pH 7.4, n=3
Sequence of human recombinant DT-diaphorase (P15559 whole entry): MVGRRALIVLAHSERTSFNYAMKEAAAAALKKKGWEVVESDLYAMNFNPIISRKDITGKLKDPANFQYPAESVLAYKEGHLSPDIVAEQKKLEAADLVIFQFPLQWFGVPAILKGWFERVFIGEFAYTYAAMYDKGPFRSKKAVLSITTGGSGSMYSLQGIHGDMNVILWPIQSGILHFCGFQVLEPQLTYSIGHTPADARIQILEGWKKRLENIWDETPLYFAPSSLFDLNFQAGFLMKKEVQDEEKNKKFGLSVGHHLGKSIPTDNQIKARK
Experimental: The relative abilities of MeDZQ and RH1 to serve as substrates for human recombinant DT-diaphorase were determined. Both quinones (0.05 mM) were incubated with 10-100 ng/ml recombinant human DT-diaphorase and NADH (0.2 mM) in 25 mM Tris buffer, pH 7.4, containing 1 mM DETAPAC. NADH removal was measured by HPLC as described in Beall et al., (1995), supra.

[11] = system: BE human colon carcinoma cells and H460 human non-small cell lung cancer cells; assay: MTT cytotoxicity, continuous four day exposure, BE versus H460 (FIG. 2); type: cell-based; conditions: four days, 5760 min
Experimental: (§2) The cell line BE is a human colon carcinoma that is described in Day et al., Carcinogenesis 1 :21-32 (1980).
The cytotoxicity of RH1 and MeDZQ to BE human colon carcinoma cells and H460 human non small cell lung cancer cells was determined. BE cells are DT-diaphorase null due to a mutation in the DT-diaphorase gene, while H460 cells have elevated DT-diaphorase levels (Traver et al., (1997) supra.). Cytotoxicity was determined using the MTT assay and cells were exposed to drug continuously throughout the four day assay.

CHO812 and CHOglyA cells = assay: Cytotoxicity of RH1 to CHOglyA and DTD-transfected CHO812 cells (FIG. 3); type: cell-based, chinese hamster
Experimental: as §2
Further studies were conducted to determine the cytotoxicity of RH1 to CHOglyA and CHO812 cells. CHOglyA cells have non detectable levels of DT-diaphorase, whereas CHO812 cells have elevated levels of DT-diaphorase as reported in Gustafson et al., (1996) supra. The original CHO cell lines were obtained from the American Type Culture Collection, Rockville, Md.

[12] = system: H460 and H596 human non-small cell lung cancer cells; assay: MTT cytotoxicity, 2 hour exposure, H460 versus H596 cells (FIG. 1); type: cell-based
Experimental: FIG. 1 compares the cytotoxicity of RH1 in human non small cell lung tumor cell lines with elevated DTD activity (H460) and those with no detectable DTD activity (H596). RH1 was 350 fold more toxic to tumor cells with elevated DTD activity than to DTD null cells.
Studies were conducted to determine the cytotoxicity of RH1 against human non small cell lung cancer cell lines. H596 cells are DT-diaphorase null due to a mutation in the DT-diaphorase gene, while H460 cells have elevated DT-diaphorase levels as described in Beall et al., (1995) supra and Traver et al., Br. J. Cancer, 75:69-75 (1997). The cell lines H460 and H596 are available from the American Tissue Type Culture Collection (ATCC), Rockville, Md. Cytotoxicity was determined after a 2 hour drug exposure in serumless medium using the MTT assay as described in detail in Beall et al., (1995), supra.

[13] = Stability of RH1 in phosphate buffer; type: physicochemical
Experimental: (§3) RH1 is easily synthesized with very high purity (>99%). […] The RH1 solutions are very stable with a half life of RH1 in phosphate buffer (0.1 M, pH=7) of more than 2 days at 25° C.

[14] = Half-life in pharmacokinetics; conditions: attributed to free hydroxyl group / water solubility
DNA [15] = assay: DNA crosslinking sequence specificity; type: biochemical
[16] = Solubility in aqueous solution; type: physicochemical; conditions: phosphate buffered saline; 25° C.
Experimental: as §3

## CCOC(=O)NC1=C(N2CC2)C(=O)C(NC(=O)OCC)=C(N2CC2)C1=O [AZQ, Diaziquone]
DTD
  Substrate quality for DTD: extremely poor substrate for DTD
DTD-rich cell lines
  Selectivity for DTD-rich cell lines: failed to show any selectivity for DTD-rich cell lines
DNA [1]
  DNA damage after reduction (crosslinks, strand breaks): does not readily form DNA crosslinks after reduction by DTD

## CC(=O)OCC1=C(N2CC2)C(=O)C(C)=C(N2CC2)C1=O [Acetyl-, 2-Acetoxymethyl-3,6-diaziridinyl-5-methyl-1,4-benzoquinone]
BE and HT-29 cells
  BE/HT-29: 5.2
H596 and H460 cells
  H596/H460: 4.7

## CC1=C(N2CC2)C(=O)C(COC(=O)c2ccccc2)=C(N2CC2)C1=O [Benzoyl, benzoyl ester of RH1]
BE and HT-29 cells
  BE/HT-29: 0.1
H596 and H460 cells
  H596/H460: 4

## Cn1c(/C=C/CO)c(CO)c2c1C(=O)C=C(N1CC1)C2=O [E09]
spheroid
  Activity / cytotoxicity in spheroid studies: not active
DTD
  Substrate quality for DTD: efficiently reduced by DTD
[2]
  Ability to penetrate cells and cross cellular membranes: poor ability
DNA [1]
  DNA damage after reduction (crosslinks, strand breaks): exclusively form DNA strand breaks

## CC1=C(N2CC2)C(=O)C(C)=C(N2CC2)C1=O [MeDZQ, 2,5-diaziridinyl-3,6-dimethyl-1,4-benzoquinone]
spheroid
  Activity / cytotoxicity in spheroid studies: increased cytotoxicity
DTD; Beall et al. 1994, Ross et al. 1994
  Effectiveness as a substrate for recombinant human DTD relative to mitomycin C: greater than 150 fold
DTD
  Inhibition / inactivation of DTD at higher pHs: does not inactivate DTD at higher pHs
  pH dependence of metabolism by DTD: pH-independent
[3]
  solubility: poor solubility
[4]
  Correlation (r) between DTD activity and cytotoxicity: 0.3033
[5]
  Cytotoxicity as a result of transfecting DTD into CHO cells: markedly increased
DNA [6]
  DNA crosslinking sequence: GNC sequences
[7]
  Stability of reactive hydroquinone metabolite: appreciable stability
H460 and H596 cells
  Cytotoxicity to H596 and H460 cells in comparison to RH1: less cytotoxic to both H596 and H460 cells
  Differential toxicity to H460 cells (versus H596): 17 fold
DNA [1]
  DNA damage after reduction (crosslinks, strand breaks): absolute requirement for reduction of the drug
[8]
  Correlation between DTD levels and cytotoxicity: good correlation
NSCLC xenografts; in vivo
  Relationship between levels of reducing enzymes and efficacy in NSCLC xenografts: confirmed the relationship between the levels of reducing enzymes and the efficacy
[9]
  Increase in cytotoxicity under hypoxic relative to aerobic conditions: very modest increase in cytotoxicity
[10]
  NADH Removal: 21.6 ± 4.0
  Quinone Removal: 9.7 ± 2.2
[11]
  Ratio of cytotoxicities of IC50, BE (no DTD activity) to H460 (elevated DTD activity): 33

## CC1=C(N2CC2)C(=O)C(CO)=C(N2CC2)C1=O [RH1, 2,5-diaziridinyl-3-(hydroxymethyl)-6-methyl-1,4-benzoquinone]
CHO812 and CHOglyA cells
  Susceptibility of CHO-812 (DTD overexpressing) to cell killing relative to parent CHO-glyA: more susceptible
[12]
  Cytotoxicity to tumor cell lines with elevated DTD activity, compared with MeDZQ: more cytotoxic to tumor cell lines with elevated DTD activity
  Selective killing of DTD-rich cells: selectively kills cells rich in DTD
[12]; 2 hour exposure, MTT, FIG. 1
  Fold toxicity to tumor cells with elevated DTD activity (H460) relative to DTD null cells (H596): 350 fold
[13]
  Stability of solutions: very stable
[13]; 0.1 m phosphate buffer, 0.1 M, pH=7, 25° C.
  half-life: > 48 h
BE and HT-29 cells
  BE/HT-29: 17.5
[14]
  Half-life in pharmacokinetics: shorter half-life in pharmacokinetics
DNA [15]
  DNA crosslinking sequence: GCC sequences
[16]
  solubility: > 500 µg/mL
H596 and H460 cells
  H596/H460: 41
[10]
  NADH Removal: 45.2 ± 6.3
  Quinone Removal: 28.2 ± 4.2
[10]; Example 2
  Effectiveness as a substrate for DT-diaphorase, compared with MeDZQ: more effective as a substrate for DT-diaphorase than MeDZQ
[11]
  Ratio of cytotoxicities of IC50, BE (no DTD activity) to H460 (elevated DTD activity): 51

## CO[C@@]12[C@H](COC(N)=O)C3=C(C(=O)C(C)=C(N)C3=O)N1C[C@@H]1N[C@@H]12 [mitomycin C]
DTD
  Inhibition / inactivation of DTD at higher pHs: pH-dependent inhibition of DTD at higher pHs
  Substrate quality for DTD: very poor substrate for DTD
  pH dependence of metabolism by DTD: pH-dependent
NSCLC xenografts; literature
  Susceptibility of NSCLC xenografts with high DTD activity versus SCLC xenografts with low DTD activity: more susceptible
